Source: US6626844B1, “Method and composition for inhibition of nitric oxide production in the oral cavity” (Aerocrine AB, priority 1998, dated 2003)

Key:
[1] = system: NO in exhaled air; experiment: Mouthwashes and NO in exhaled air; assay type: in vivo, humans
From the text: (§1) Ten healthy non-smoking subjects, age 23-43, were included in the study. The NO measurements were made with a chemiluminescense technique according to the recommendations recently described in the ERS Task Force Report (Kharitonov et al., 1997). The values of NO concentration were then registered in a computer software program together with the values of flow and pressure, measured with a pneunotachygraf, and calculations of these parameters were presented on a screen.
The following describes briefly the “single-breath” method for orally exhaled air. Compressed NO free air was continuously flowing into a non-diffusing gas collection bag, 100 l capacity (Hans Rudolph Inc.), at a rate of 2-3 l/min. The bag was connected via a tube to a Y-piece with a one-way valve, which in turn was adapted to a mouthpiece. Before the measurements the subjects inhaled NO free air through the mouthpiece and were asked to hold their breath for 10 s while they put their tongue into the mouthpiece's opening, in order to prevent NO from diffusing out. Then the subjects exhaled through the mouthpiece at a flow rate of about 0.15 l/s against a resistance of 50 cmH2O/l/s (Hans Rudolph Inc.), giving rise to an oral pressure of 8-10 cmH2O, for a period of 20 s. The exhaled air went out through the other one-way valve in the Y-piece leading on to a linear pneumotachymeter (Hans Rudolph Inc.), where the values of flow and pressure were registered and transformed into digital signals recorded by a computer software program (Medical Breath Analyser™ from Aerocrine AB, Sweden). The recordings were instantly visualized on a computer screen, which enabled the subjects to maintain a certain flow (i.e. 0.15 l/s), adjusting the exhalation to the flow curve. A fraction of the exhaled air was aspirated into the NO analyzer (Eco Physics Inc., Model CLD 700 AL) at a flow rate of approximately 0.5 l/min, through a 110-cm narrow-bore and Teflon®-coated tube connected to the mouthpiece. The detected NO levels were passed on to the computer and integrated with the figures for flow and pressure for calculation of NO release rate (pmol/s) and NO amount (pmol). NO release was calculated by the formula: NO-conc×Q=pmol/s×l/s=pmol/s. The conversion of NO-conc in ppb to a molecular unit goes via the fact that the volume of 1 mol of NO takes up 24.445 liters at normal temperature and pressure. Given this 1 ppb NO equals 40.908 pM. At the flow of 0.15 l/s and e.g. a NO-conc of 10 ppb the NO release equals 67 pmol/s. The use of NO-release, instead of NO-concentration as a registration unit, has the advantage of taking the flow rate into account, whereas in the use of NO-concentration the exhalation flow is not taken into consideration. In addition to the curves for flow and pressure two curves for NO concentration and NO release were plotted on the screen and calculated mean values were presented for the last 40% of the breath, representing the plateau phase. NO amount was also presented for the first 40%, representing the area under curve for the peak.
In order to further manipulate with the conditions in the oral cavity and perhaps influence the formation of NO from salivary nitrite different mouthwashes were introduced in the study. On a separate day, from that of the nitrate load, the ten subjects volunteered to have their NO in exhaled air measured after rinsing their mouth with distilled water, sodium bicarbonate-, ascorbic acid- and, nitrite solutions in named order. Further, a mouthwash with Chlorhexidine acetate 0.2% was included in the study.
In the first series of mouthwashes 5 baseline measurements with a breathhold were performed to obtain a reference value. In fact, all measurements in this part of the experiment were done with a breathhold, for the reasons described above. […]

[2] = system: exhaled NO output; experiment: Mouthwash trials: NO output in exhaled air; assay type: in vivo, humans; details: for effect on NO output: 30 s mouthwash with 25 ml
Method: Experimental protocol: Exhaled NO was measured at an exhalation flow rate of 100 ml/s and the NO output was calculated. Measurements were repeated 3 times at each time point and the median value was used. After baseline measurements, the test subjects (n=3) were asked to rinse their mouth with 25 ml of different solutions during 30 s whereafter the solution was spat out All solutions were made up in distilled water. Exhaled NO measurements were repeated directly after, and 5, 15 and 30 min after the mouthwash procedure. Results are given as mean relative changes in NO output compared to baseline measurements.

[3] = system: NO in exhaled air; experiment: Mouthwash after nitrate loading, NO in exhaled air; assay type: in vivo, humans
Method: The experiment was terminated with a mouthwash of sodium bicarbonate after 180 min with a following single-breath measurements. This to examine whether the mouthwash's possible reduction of the NO formation would be enhanced at a stage when one would expect high levels of NO. For mouthwash procedure see below.
In addition to the mouthwash with sodium bicarbonate after […], the effects of chlorhexidine was studied at a stage when one could expect larger amounts of nitrite in the saliva. This was also done in a separate experiment, on a separate day, not to interfere with the results of the original nitrate loading study. Five single-breaths with a breathhold were carried out to obtain a reliable baseline. Thereafter a load of 400 mg potassium nitrate was ingested, as described above. However, to facilitate this experiment for the subjects there was no demand for fasting. Five additional single-breaths were performed 90 min later—to get representative mean values of NO after nitrate ingestion. The subjects then rinsed their mouths with 2.5 cl chlorhexidine acetate 0.2% for 30 s and performed a NO measurement immediately afterwards. The single-breath procedure was also repeated 2, 5, 10, 20 and 30 min after the mouthwash.

[4] = system: nasal NO; experiment: Nasal NO after nitrate loading; assay type: in vivo, humans; details: 5-180 min after nitrate loading
From the text: To look into nasal NO levels a somewhat new approach taking advantage of the set-up for measurements in exhaled air was used. A “nose-olive”, tried out individually for a tight fitting to the subject's nostrils, was attached to the Teflon®-coated tube leading in to the NO-analyzer. The olive was then placed in one of the nostrils letting the NO analyzer aspirate air from the nasal cavity. Even though the subjects kept breathing through their mouth the NO concentrations oscillated with every breath, pointing to a leakage of NO from the nose to the oral cavity. The subjects were asked to take a deep breath and exhale through the mouthpiece against the same resistance as above, while the olive still was sampling from the nose. The oscillations of the NO values then ceased and the concentrations increased to a stable plateau, visualized on the computer screen. The time for exhalation was set to 20 s. which was well sufficient to reach a plateau. A mean value of the NO concentration during the last 40% of the exhalation, i.e. 8 s. was presented by the computer program and included in the protocol. […]
An amount of 400 mg potassium nitrate was dissolved in a cup of distilled water and then swallowed down. […] NO in exhaled air was measured first without and then with a breathhold, as mentioned above.

[5] = system: NO in exhaled air; experiment: Nitrate loading: NO in orally exhaled air, single-breath chemiluminescence; assay type: in vivo, humans
From the text: as §1
The following describes briefly the “single-breath” method for orally exhaled air. Compressed NO free air was continuously flowing into a non-diffusing gas collection bag, 100 l capacity (Hans Rudolph Inc.), at a rate of 2-3 l/min. The bag was connected via a tube to a Y-piece with a one-way valve, which in turn was adapted to a mouthpiece. Before the measurements the subjects inhaled NO free air through the mouthpiece and were asked to hold their breath for 10 s while they put their tongue into the mouthpiece's opening, in order to prevent NO from diffusing out. Then the subjects exhaled through the mouthpiece at a flow rate of about 0.15 l/s against a resistance of 50 cmH2O/l/s (Hans Rudolph Inc.), giving rise to an oral pressure of 8-10 cmH2O, for a period of 20 s. The exhaled air went out through the other one-way valve in the Y-piece leading on to a linear pneumotachymeter (Hans Rudolph Inc.), where the values of flow and pressure were registered and transformed into digital signals recorded by a computer software program (Medical Breath Analyser™ from Aerocrine AB, Sweden). The recordings were instantly visualized on a computer screen, which enabled the subjects to maintain a certain flow (i.e. 0.15 l/s), adjusting the exhalation to the flow curve. A fraction of the exhaled air was aspirated into the NO analyzer (Eco Physics Inc., Model CLD 700 AL) at a flow rate of approximately 0.5 l/min, through a 110-cm narrow-bore and Teflon®-coated tube connected to the mouthpiece. The detected NO levels were passed on to the computer and integrated with the figures for flow and pressure for calculation of NO release rate (pmol/s) and NO amount (pmol). NO release was calculated by the formula: NO-conc×Q=pmol/s×l/s=pmol/s. The conversion of NO-conc in ppb to a molecular unit goes via the fact that the volume of 1 mol of NO takes up 24.445 liters at normal temperature and pressure. Given this 1 ppb NO equals 40.908 pM. At the flow of 0.15 l/s and e.g. a NO-conc of 10 ppb the NO release equals 67 pmol/s. The use of NO-release, instead of NO-concentration as a registration unit, has the advantage of taking the flow rate into account, whereas in the use of NO-concentration the exhalation flow is not taken into consideration. In addition to the curves for flow and pressure two curves for NO concentration and NO release were plotted on the screen and calculated mean values were presented for the last 40% of the breath, representing the plateau phase. NO amount was also presented for the first 40%, representing the area under curve for the peak. […]
Changes in NO levels were analysed by using non-parametric ANOVA for paired and repeated measures with subsequent Dunn's post-test as offered by InStat from GraphPad Software. Nitrate and nitrite concentrations in the saliva were analysed by the non-parametric method of […] for paired measurements, using the same software. […]

[6] = system: NO formation from saliva
Method: On another occasion the subjects were asked to produce 10 ml of saliva, without time restriction, by again chewing on a piece of Teflon®-plastic. Half of this, i.e. 5 ml, was put in a 50 ml plastic syringe with an addition of 0.5 ml distilled water and closed with a three-way stopcock after filling it up with 50 ml of room air. The remaining 5 ml were mixed with 0.5 ml 20 mM nitrite solution (resulting in a salivary nitrite concentration of a […]) and put in another syringe filled with 50 ml of room air. The two syringes were put in a warming cupboard with an approximate temperature of 40° C. for 15 min. The air head space from both syringes was then collected in two separate empty 50 ml syringes and it's NO concentration was determined by the NO chemiluminescence analyser.

[7] = system: NO synthesis in the oral cavity; details: prior treatment with mouthwash, healthy volunteers; cited from earlier work
[8] = 0 min after 30 s mouthwash with 25 ml, n=3
[9] = 120 min after nitrate ingestion, after breathhold
[10] = immediately after 30 s mouthwash (3 cl), with breathhold, baseline 41.1±3.3, n=10
[11] = immediately after 30 s mouthwash, baseline 497.6±52.7

With `CC(=O)O.CC(=O)O.NC(=N\CCCCCC/N=C(N)/N=C(\N)Nc1ccc(Cl)cc1)/N=C(\N)Nc1ccc(Cl)cc1` [chlorhexidine acetate] the “immediate decrease of NO compared to baseline” value ([1]; 0.2% mouthwash, control (fasting) situation) was ~30%, the NO release ([1]; immediately after 30 s mouthwash with 2.5 cl 0.2%, pH 8.0, separate day, baseline 33.9±2.9) was 24.1 ± 3.5 pmol/s and the “mean relative change in NO output compared to baseline” value (from here on “mean relative change in NO output”) [2, 8] was −14% at. The “mean relative change in NO output” value ([2]; 5 min after mouthwash) was −11% at, the “mean relative change in NO output” value ([2]; 15 min after mouthwash) was −5% at and the “mean relative change in NO output” value ([2]; 30 min after mouthwash) was −10% at. For the same molecule, the NO release ([3]; immediately after 0.2% mouthwash (2.5 cl, 30 s) given 90 min after nitrate load, before mouthwash 60.8±6.4) was 33.9 ± 4.3 pmol/s and the “immediate reduction of NO levels” value ([3]; mouthwash 90 min after nitrate load) was ~50%.
With `OO` [1% H2O2, hydrogen peroxide] the “effect on NO output” value [2] was “increased NO output”.
For `O=S(=O)([O-])[O-].[Fe+2]` [100 mg FeSO4], the “effect on NO output” value [2] was “increased NO output”.
For `O=[N+]([O-])[O-].[K+]` [potassium nitrate], the “changes in nasal NO production” value [4] was “no significant changes in NO production”, the NO release ([3]; 90 min after 400 mg potassium nitrate, not fasting, control 34.8±4.2) was 60.8 ± 6.4 pmol/s and the “increase of NO release compared to control levels” value ([3]; 90 min after nitrate load) was ~2 fold. For the same molecule, the “NO release during the plateau” value ([5]; 120 min after ingestion of 400 mg potassium nitrate, without breathhold, baseline 31.2±3.0, mean±SEM n=10) was 77.0 ± 15.2 pmol/s, the “increase of peak NO amount compared to baseline” value [5, 9] was 130% and the “peak level: total amount NO released during the first 40% of the exhalation” value [5, 9] was 819 ± 160.8 pmol. The “NO release during the plateau” value ([5]; 120 min after nitrate ingestion, with breathhold, baseline 31.9±4.5) was 70.8 ± 11.6 pmol/s and the “increase of plateau NO release compared to baseline” value ([5]; 120 min after nitrate ingestion, without breathhold) was ~150%.
With `O=N[O-].[K+]` [nitrite solution, potassium nitrite] the “increase of plateau NO release compared to baseline” value ([1]; 0.1 M nitrite solution) was > 40 fold, the “peak level of NO” value ([1]; 60 s after 30 s mouthwash) was 2812.1±622.1 ppb and the “plateau NO release” value ([1]; 60 s after 30 s mouthwash) was 225.2 ± 44.0 pmol/s. The “plateau NO release” value ([1]; dose-response rinse, 1 mM nitrite solution, one single-breath after rinsing) was 55.0 ± 8.7 pmol/s, the “plateau NO release” value ([1]; dose-response rinse, 0.1 M nitrite solution) was 1791.8 ± 404.8 pmol/s and the “NO concentration in head space of incubated saliva” value ([6]; 5 ml saliva + 0.5 ml 20 mM nitrite, about 40° C., 15 min, pure saliva 59.5±29.8) was 396.4±138.2 ppb. For the same molecule, the “increase of NO formation versus pure saliva” value ([6]; nitrite added to saliva) was “more than 500%”.
For “polyoxyethylene sorbitan monolaurate [1% Tween-20 ®]”, the “mean relative change in NO output” value [2, 8] was −9% at and the “mean relative change in NO output” value ([2]; 5 min after mouthwash) was −6% at.
With `O=C([O-])O.[Na+]` [sodium bicarbonate] the “plateau NO release” value ([1]; 120 s after 30 s mouthwash) was 34.4 ± 3.6 pmol/s, the “plateau NO release” value [1, 10] was 31.3 ± 3.1 pmol/s and the “peak level of NO” value [1, 11] was 309.2±43.0 ppb. The “mean relative change in NO output” value [2, 8] was −7% at, the “mean relative change in NO output” value ([2]; 5 min after mouthwash) was −5% at and the “mean relative change in NO output” value ([2]; 15 min after mouthwash) was −8% at. The “mean relative change in NO output” value ([2]; 30 min after mouthwash) was −8% at, the reduction of plateau ([3]; mouthwash 180 min after nitrate load) was “more than 30%” and the “plateau NO release” value ([3]; mouthwash 180 min after nitrate load, before mouthwash 52.7±4.8) was 36.2 ± 4.2 pmol/s.
In the case of `O=C1O[C@H]([C@@H](O)CO)C(O)=C1O` [ascorbic acid], the “plateau NO release” value [1, 10] is reported as 155.0 ± 27.6 pmol/s, the “peak level of NO” value [1, 11] is reported as 2482.5±601.9 ppb and the “increase of peak concentration” value ([1]; immediately after mouthwash) is reported as “around 400%”. The “increase of plateau level compared to baseline” value ([1]; immediately after mouthwash) was ~300% and the “effect on NO production” value [7] was “marked elevation in NO production”.
